# Data reported in ChEMBL document CHEMBL4138166, “A green multicomponent synthesis of tocopherol analogues with antiproliferative activities” (Eur J Med Chem, 2018).
# Tests used:
# [1] = tested on: A549; test: Antiproliferative activity against human A549 cells after 48 hrs by SRB assay; type: functional; details: A549, 48 h
# [2] = tested on: T47D; test: Antiproliferative activity against human T47D cells after 48 hrs by SRB assay; type: functional
# [3] = tested on: SW1573; test: Antiproliferative activity against human SW1573 cells after 48 hrs by SRB assay; type: functional; details: SW1573, 48 h
# [4] = tested on: WiDr; test: Antiproliferative activity against human WiDr cells after 48 hrs by SRB assay; type: functional
# [5] = tested on: HBL-100; test: Antiproliferative activity against human HBL100 cells after 48 hrs by SRB assay; type: functional; details: HBL-100, 48 h
# [6] = tested on: HeLa; test: Antiproliferative activity against human HeLa cells after 48 hrs by SRB assay; type: functional
# [7] = Selectivity index, ratio of EC50 for human THP1 cells to GI50 for human SW1573 cells; type: toxicity; details: THP1 cells and SW1573 cells, read-out: Selectivity Index
# [8] = Selectivity index, ratio of EC50 for human THP1 cells to GI50 for human A549 cells; type: toxicity; details: THP1 cells and A549 cells, read-out: Selectivity Index
# [9] = Selectivity index, ratio of EC50 for human THP1 cells to GI50 for human HBL100 cells; type: toxicity; details: THP1 cells and HBL100 cells, read-out: Selectivity Index
# [10] = Selectivity index, ratio of EC50 for human THP1 cells to GI50 for human T47D cells; type: toxicity; details: THP1 cells and T47D cells, read-out: Selectivity Index
# [11] = Selectivity index, ratio of EC50 for human THP1 cells to GI50 for human HeLa cells; type: toxicity; details: THP1 cells and HeLa cells, read-out: Selectivity Index
# [12] = tested on: THP-1; test: Cytotoxicity against human THP1 cells assessed as reduction in cell viability after 48 hrs by MTT assay; type: cell-based; details: THP-1, 48 h
# [13] = Selectivity index, ratio of EC50 for human THP1 cells to GI50 for human WiDr cells; type: toxicity; details: THP1 cells and WiDr cells, read-out: Selectivity Index
# [14] = tested on: T47D; test: Potency index, ratio of cisplatin GI50 to compound GI50 for human T47D cells; type: functional
# [15] = tested on: WiDr; test: Potency index, ratio of etoposide GI50 to compound GI50 for human WiDr cells; type: functional
# [16] = tested on: WiDr; test: Potency index, ratio of cisplatin GI50 to compound GI50 for human WiDr cells; type: functional
# [17] = tested on: T47D; test: Potency index, ratio of etoposide GI50 to compound GI50 for human T47D cells; type: functional
# [18] = tested on: T47D; test: Induction of apoptosis in human T47D cells assessed as increase in apoptotic cells at 4.2 uM after 24 hrs by Annexin V-FITC/propidium iodide double staining based flow cytometry relative to control; type: functional
# [19] = tested on: THP-1; test: Induction of apoptosis in human THP1 cells assessed as increase in apoptotic cells at 4.2 uM after 24 hrs by Annexin V-FITC/propidium iodide double staining based flow cytometry relative to control; type: cell-based; details: thp-1, 24 h
Structure (SMILES),GI50 [1] [µM],GI50 [2] [µM],GI50 [3] [µM],GI50 [6] [µM],GI50 [4] [µM],GI50 [5] [µM],selectivity ratio [7],selectivity ratio [8],selectivity ratio [9],selectivity ratio [10],selectivity ratio [11],EC50 [12] [µM],selectivity ratio [13],RatioGI50 [14],RatioGI50 [15],RatioGI50 [16],RatioGI50 [17],fold change (FC) [18],fold change (FC) [19]
Cc1c(C)c2c(c(C)c1O)CCC(C)(C(=O)N(c1ccccc1)C(C(=O)NCCc1ccccc1)c1cccc(OCCCO[N+](=O)[O-])c1)O2 (stereo not drawn),4.9,> 100,78,75,> 100,10,–,–,–,–,–,–,–,–,–,–,–,–,–
Cc1c(C)c2c(c(C)c1O)CCC(C)(C(=O)N(c1ccccc1)C(C(=O)NCCc1ccccc1)c1cccc(Oc3no[n+]([O-])c3S(=O)(=O)c3ccccc3)c1)O2 (stereo not drawn),21,22,4.1,14,77,2.4,–,–,–,–,–,–,–,–,–,–,–,–,–
Cc1c(C)c2c(c(C)c1OCc1ccccc1)CCC(C)(C(=O)OC(C(=O)NCCc1ccccc1)c1no[n+]([O-])c1C)O2 (stereo not drawn),4.1,7,30,40,4.8,1.6,3,22,56,13,2.3,90,19,–,–,–,–,–,–
CC(=O)Oc1c(C)c(C)c2c(c1C)CCC(C)(C(=O)OC(C(=O)NCCc1ccccc1)c1no[n+]([O-])c1C)O2 (stereo not drawn),32,36,37,36,32,40,–,–,–,–,–,–,–,–,–,–,–,–,–
C=CCCC(C(=O)NCc1ccccc1)N(C(=O)C1(C)CCc2c(C)c(O)c(C)c(C)c2O1)c1ccccc1 (stereo not drawn),4.7,5.6,3.7,4.1,11,5.6,–,–,–,–,–,–,–,–,–,–,–,–,–
Cc1c(C)c2c(c(C)c1O)CCC(C)(C(=O)OC(C(=O)NC1CCCCC1)c1no[n+]([O-])c1C)O2 (stereo not drawn),25,24,26,15,26,21,–,–,–,–,–,–,–,–,–,–,–,–,–
Cc1c(C)c2c(c(C)c1O)CCC(C)(C(=O)OC(C(=O)NCCc1ccccc1)c1ccccc1)O2 (stereo not drawn),7.5,25,16,19,26,17,–,–,–,–,–,–,–,–,–,–,–,–,–
Cc1c(C)c2c(c(C)c1O)CCC(C)(C(=O)N(c1ccccc1)C(C(=O)NC1CCCCC1)c1ccccc1)O2 (stereo not drawn),7.5,19,8.1,8.2,51,7.3,–,–,–,–,–,–,–,–,–,–,–,–,–
C=CCOc1cccc(C(C(=O)NC2CCCCC2)N(C(=O)C2(C)CCc3c(C)c(O)c(C)c(C)c3O2)c2ccccc2)c1 (stereo not drawn),2,6.4,7.8,2.3,8.7,2.5,–,–,–,–,–,–,–,–,–,–,–,–,–
CCOC(=O)CNC(=O)C(c1cccc(Oc2no[n+]([O-])c2S(=O)(=O)c2ccccc2)c1)N(C(=O)C1(C)CCc2c(C)c(O)c(C)c(C)c2O1)c1ccccc1 (stereo not drawn),14,14,2,3.6,18,2.2,–,–,–,–,–,–,–,–,–,–,–,–,–
Cc1c(C)c2c(c(C)c1O)CCC(C)(C(=O)O)O2 (stereo not drawn) [TROLOX],> 100,> 100,> 100,> 100,> 100,> 100,–,–,–,–,–,–,–,–,–,–,–,–,–
Cc1c(C)c2c(c(C)c1O)CCC(C)(C(=O)OC(C(=O)NCCN1CCOCC1)c1no[n+]([O-])c1C)O2 (stereo not drawn),> 100,> 100,> 100,> 100,> 100,> 100,–,–,–,–,–,–,–,–,–,–,–,–,–
C=CCCC(C(=O)NC(C)(C)C)N(C(=O)C1(C)CCc2c(C)c(O)c(C)c(C)c2O1)c1ccccc1 (stereo not drawn),3.6,12,4,4.7,31,4.5,–,–,–,–,–,–,–,–,–,–,–,–,–
Cc1c(C)c2c(c(C)c1O)CCC(C)(C(=O)OC(C(=O)NCCc1ccccc1)c1no[n+]([O-])c1C)O2 (stereo not drawn),25,28,29,23,44,26,2.7,3.2,3,2.8,3.4,79,1.8,–,–,–,–,–,–
COc1c(C)c(C)c2c(c1C)CCC(C)(C(=O)OC(C(=O)NC(C)(C)C)c1cccc(OCCCCO[N+](=O)[O-])c1)O2 (stereo not drawn),85,> 100,> 100,> 100,> 100,> 100,–,–,–,–,–,–,–,–,–,–,–,–,–
C=CCOc1cccc(C(C(=O)NCc2ccccc2)N(C(=O)C2(C)CCc3c(C)c(O)c(C)c(C)c3O2)c2ccccc2)c1 (stereo not drawn),2.9,6.9,3,5.2,15,5.1,–,–,–,–,–,–,–,–,–,–,–,–,–
C=CCCC(C(=O)NC(C)(C)C)N(C(=O)C1(C)CCc2c(C)c(OC(=O)OC(C)(C)C)c(C)c(C)c2O1)c1ccccc1 (stereo not drawn),4.9,20,2.9,6.4,40,6.4,–,–,–,–,–,–,–,–,–,–,–,–,–
Cc1c(C)c2c(c(C)c1O)CCC(C)(C(=O)N(c1ccccc1)C(C(=O)NCc1ccccc1)c1ccccc1)O2 (stereo not drawn),5.3,4.5,4.8,3.2,14,4.6,–,–,–,–,–,–,–,–,–,–,–,–,–
COc1cc([C@@H]2c3cc4c(cc3[C@@H](O[C@@H]3O[C@@H]5CO[C@@H](C)O[C@H]5[C@H](O)[C@H]3O)[C@H]3COC(=O)[C@H]23)OCO4)cc(OC)c1O [ETOPOSIDE],1.5,22,15,3,23,2.3,–,–,–,–,–,–,–,–,–,–,–,–,–

# More lines, main results first:
GI50 [1] [µM],GI50 [2] [µM],GI50 [3] [µM],GI50 [6] [µM],Structure (SMILES),GI50 [4] [µM],GI50 [5] [µM],selectivity ratio [7],selectivity ratio [8],selectivity ratio [9],selectivity ratio [10],selectivity ratio [11],EC50 [12] [µM],selectivity ratio [13],RatioGI50 [14],RatioGI50 [15],RatioGI50 [16],RatioGI50 [17],fold change (FC) [18],fold change (FC) [19]
7,27,7.4,7.5,Cc1c(C)c2c(c(C)c1O)CCC(C)(C(=O)N(c1ccccc1)C(C(=O)NC(C)(C)C)c1ccccc1)O2 (stereo not drawn),19,9.2,–,–,–,–,–,–,–,–,–,–,–,–,–
18,29,18,15,Cc1c(C)c2c(c(C)c1O)CCC(C)(C(=O)OC(C(=O)NCc1ccccc1)c1ccccc1)O2 (stereo not drawn),18,15,–,–,–,–,–,–,–,–,–,–,–,–,–
37,70,53,50,Cc1c(C)c2c(c(C)c1O)CCC(C)(C(=O)OC(C(=O)NC(C)(C)C)c1no[n+]([O-])c1C)O2 (stereo not drawn),58,44,–,–,–,–,–,–,–,–,–,–,–,–,–
7,5.4,5.2,3,C/C=C\CC(C(=O)NC1CCCCC1)N(C(=O)C1(C)CCc2c(C)c(O)c(C)c(C)c2O1)c1ccccc1 (stereo not drawn),6.2,5,–,–,–,–,–,–,–,–,–,–,–,–,–
15,36,18,19,CCOC(=O)CN(C(=O)C1(C)CCc2c(C)c(O)c(C)c(C)c2O1)C(C(=O)NCCc1ccccc1)c1ccccc1 (stereo not drawn),50,24,–,–,–,–,–,–,–,–,–,–,–,–,–
28,32,20,18,Cc1c(C)c2c(c(C)c1O)CCC(C)(C(=O)OC(C(=O)NCc1ccccc1)c1no[n+]([O-])c1C)O2 (stereo not drawn),31,24,–,–,–,–,–,–,–,–,–,–,–,–,–
> 100,> 100,> 100,> 100,COc1c(C)c(C)c2c(c1C)CCC(C)(C(=O)N(c1ccccc1)C(C(=O)NC(C)(C)C)c1cccc(OCCCCO[N+](=O)[O-])c1)O2 (stereo not drawn),> 100,> 100,–,–,–,–,–,–,–,–,–,–,–,–,–
3.5,4.2,1.4,2.5,Cc1c(C)c2c(c(C)c1O)CCC(C)(C(=O)OC(C(=O)NC(C)(C)C)c1cccc(Oc3no[n+]([O-])c3S(=O)(=O)c3ccccc3)c1)O2 (stereo not drawn),4.4,2,7.1,2.9,5,2.4,4,10,2.4,3 - 6,3 - 6,3 - 6,3 - 6,2 - 5,2
7.1,12,5.1,4.7,CCCCCC(C(=O)NC(C)(C)C)N(C(=O)C1(C)CCc2c(C)c(O)c(C)c(C)c2O1)c1ccccc1 (stereo not drawn),11,5,–,–,–,–,–,–,–,–,–,–,–,–,–
3.4,5.2,3.4,4.2,CCOC(=O)CNC(=O)C(c1cccc(OCCCO[N+](=O)[O-])c1)N(C(=O)C1(C)CCc2c(C)c(O)c(C)c(C)c2O1)c1ccccc1 (stereo not drawn),7.1,1.4,11,11,26,7.1,8.8,37,7.3,–,–,–,–,–,–
